Assay results: paper PMC6155603, “Synthesis and Preliminary Biological Evaluation of Indol-3-yl-oxoacetamides as Potent Cannabinoid Receptor Type 2 Ligands” (Molecules : A Journal of Synthetic Chemistry and Natural …, 2017)

Experiments:
[1] = target: T1, human CB2 (Homo sapiens, UniProt P34972); assay: radioligand inhibition binding assay, [^3H]WIN55.212-2, membranes of CHO cells stably transfected with human CB2
T1 construct: host or cells: CHO cells (stably transfected), membrane homogenates
Description: Non-specific binding was determined using 10 µM WIN55.212-2. The individual IC50 values were determined by non-linear curve fitting using GraphPad Prism software (version 3.0, GraphPhad, San Diego, CA, USA), and the corresponding Ki values calculated using the Cheng–Prusoff equation [44]. […] Additionally, the binding affinities towards the CB1 receptor were investigated for compounds 6 and 8 by using [^3H]CP55.40 as competitive radioligand.

[2] = target: CB2; details: reported value of lead molecule; cited from earlier work
[3] = target: CB1; details: reported value of lead molecule; cited from earlier work
[4] = target: human CB1 receptors (Homo sapiens, UniProt P21554); assay: CB1 binding assay with [^3H]CP55.40 as competitive radioligand; details: no displacement of radioligand up to this concentration
Description: Non-specific binding was determined using 10 µM WIN55.212-2. The individual IC50 values were determined by non-linear curve fitting using GraphPad Prism software (version 3.0, GraphPhad, San Diego, CA, USA), and the corresponding Ki values calculated using the Cheng–Prusoff equation [44]. […] Additionally, the binding affinities towards the CB1 receptor were investigated for compounds 6 and 8 by using [^3H]CP55.40 as competitive radioligand. None of the two derivatives could displace [^3H]CP55.40 from the human CB1 receptors up to a concentration of 100 µM. Thus, within this series of fluoro-substituted compounds, the N-alkyl chain of compound 8 is most suitable to obtain high affinity binding at the CB2 receptor, combined with an excellent selectivity against the CB1 receptor subtype.

T1 sequence (P34972 whole entry): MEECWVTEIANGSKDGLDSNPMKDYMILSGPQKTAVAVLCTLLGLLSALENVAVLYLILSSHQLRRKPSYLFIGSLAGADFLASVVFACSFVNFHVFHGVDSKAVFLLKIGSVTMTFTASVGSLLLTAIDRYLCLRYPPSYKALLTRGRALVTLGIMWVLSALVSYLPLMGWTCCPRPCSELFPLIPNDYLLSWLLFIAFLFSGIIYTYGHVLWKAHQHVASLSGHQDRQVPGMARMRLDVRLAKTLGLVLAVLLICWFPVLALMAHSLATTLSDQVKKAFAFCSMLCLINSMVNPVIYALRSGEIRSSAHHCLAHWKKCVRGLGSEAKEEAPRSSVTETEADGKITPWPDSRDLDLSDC
human CB1 receptors, sequence (P21554 whole entry): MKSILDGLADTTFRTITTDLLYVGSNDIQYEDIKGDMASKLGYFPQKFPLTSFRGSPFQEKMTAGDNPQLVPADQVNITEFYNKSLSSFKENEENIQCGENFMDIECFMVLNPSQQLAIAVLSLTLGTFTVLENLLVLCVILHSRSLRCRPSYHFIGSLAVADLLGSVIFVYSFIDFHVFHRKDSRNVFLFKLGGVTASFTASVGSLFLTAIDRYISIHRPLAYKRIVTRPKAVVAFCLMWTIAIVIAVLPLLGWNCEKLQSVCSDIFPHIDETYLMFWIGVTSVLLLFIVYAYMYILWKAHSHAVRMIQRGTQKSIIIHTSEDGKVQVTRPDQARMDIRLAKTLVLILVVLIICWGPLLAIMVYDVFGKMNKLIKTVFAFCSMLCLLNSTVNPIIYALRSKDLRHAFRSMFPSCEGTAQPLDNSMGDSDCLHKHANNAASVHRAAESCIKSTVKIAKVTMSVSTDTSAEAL

Compound | Ki [1] [µM] | Ki [2] [µM] | Ki [3] [µM] | concentration up to which [^3H]CP55.40 was not displaced from human CB1 receptors [4] [µM]
COCCn1cc(C(=O)C(=O)NC23CC4CC(CC(C4)C2)C3)c2cc(-c3ccco3)ccc21 [compound 7, N-(Adamantan-1-yl)-2-(5-(furan-2-yl)-1-(2-methoxyethyl)-1H-indol-3-yl)-2-oxoacetamide] | 0.0161 |  |  | 
CCCCCn1cc(C(=O)C(=O)NC23CC4CC(CC(C4)C2)C3)c2cc(-c3ccco3)ccc21 [compound 5, N-(Adamantan-1-yl)-2-(5-(furan-2-yl)-1-pentyl-1H-indol-3-yl)-2-oxoacetamide] | 0.0085 | 0.00037 | 0.345 | 
O=C(NC12CC3CC(CC(C3)C1)C2)C(=O)c1cn(CCOCCF)c2ccc(-c3ccco3)cc12 [compound 8, N-(Adamantan-1-yl)-2-(1-(2-(2-fluoroethoxy)ethyl)-5-(furan-2-yl)-1H-indol-3-yl)-2-oxoacetamide] | 0.0062 |  |  | > 100
O=C(NC12CC3CC(CC(C3)C1)C2)C(=O)c1cn(CCOCCOCCF)c2ccc(-c3ccco3)cc12 [compound 6, N-(Adamantan-1-yl)-2-(1-(2-(2-(2-fluoroethoxy)ethoxy)ethyl)-5-(furan-2-yl)-1H-indol-3-yl)-2-oxoacetamide] | 0.0273 |  |  | > 100
